Experiments:
Assay in all cases: KINOMEscan competition binding
Conditions in all cases: compound 10.0 µM
OXSR1 (human) = OXSR1 (human) (UniProt O95747)
MAP2K1 (human) = MAP2K1 (human) (UniProt Q02750)
PLK4 (human) = PLK4 (human) (UniProt O00444)
ALK (human) = ALK (human) (UniProt Q9UM73)
SNRK (human) = SNRK (human) (UniProt Q9NRH2)
NEK2 (human) = NEK2 (human) (UniProt P51955)
STK32A (human) = STK32A (human) (UniProt Q8WU08)
FER (human) = FER (human) (UniProt P16591)
CSNK2A1 (human) = CSNK2A1 (human) (UniProt P68400)
BMX (human) = BMX (human) (UniProt P51813)
TNIK (human) = TNIK (human) (UniProt Q9UKE5)
ERBB2 (human) = ERBB2 (human) (UniProt P04626)
MYO3A (human) = MYO3A (human) (UniProt Q8NEV4)
TNK2 (human) = TNK2 (human) (UniProt Q07912)
CDKL1 (human) = CDKL1 (human) (UniProt Q00532)
LRRK2 (human) = LRRK2 (human) (UniProt Q5S007)
RET (human) = RET (human) (UniProt P07949)
EPHB1 (human) = EPHB1 (human) (UniProt P54762)
CAMK4 (human) = CAMK4 (human) (UniProt Q16566)
AKT3 (human) = AKT3 (human) (UniProt Q9Y243)
TXK (human) = TXK (human) (UniProt P42681)
IRAK1 (human) = IRAK1 (human) (UniProt P51617)
EIF2AK1 (human) = EIF2AK1 (human) (UniProt Q9BQI3)
RPS6KA2 KD1 (human) = RPS6KA2 KD1 (human) (UniProt Q15349)
STK38 (human) = STK38 (human) (UniProt Q15208)
CSK (human) = CSK (human) (UniProt P41240)
PAK1 (human) = PAK1 (human) (UniProt Q13153)
DYRK2 (human) = DYRK2 (human) (UniProt Q92630)
CDKL5 (human) = CDKL5 (human) (UniProt O76039)
CRK2 (P.falciparum) = CRK2 (P.falciparum) (UniProt P61075)
STK32C (human) = STK32C (human) (UniProt Q86UX6)
RPS6KA4 KD2 (human) = RPS6KA4 KD2 (human) (UniProt O75676)
CLK3 (human) = CLK3 (human) (UniProt P49761)
MAP2K7 (human) = MAP2K7 (human) (UniProt O14733)
[1] = tested on: PIK3CA (human), P42336 [C420R]
PRKG1 (human) = PRKG1 (human) (UniProt Q13976)
[2] = target: TYK2 JH2 pseudokinase (human) (UniProt P29597)
INSRR (human) = INSRR (human) (UniProt P14616)
INSR (human) = INSR (human) (UniProt P06213)
MUSK (human) = MUSK (human) (UniProt O15146)
MERTK (human) = MERTK (human) (UniProt Q12866)

Chain of CDKL5 (human) (O76039 whole entry, looked up): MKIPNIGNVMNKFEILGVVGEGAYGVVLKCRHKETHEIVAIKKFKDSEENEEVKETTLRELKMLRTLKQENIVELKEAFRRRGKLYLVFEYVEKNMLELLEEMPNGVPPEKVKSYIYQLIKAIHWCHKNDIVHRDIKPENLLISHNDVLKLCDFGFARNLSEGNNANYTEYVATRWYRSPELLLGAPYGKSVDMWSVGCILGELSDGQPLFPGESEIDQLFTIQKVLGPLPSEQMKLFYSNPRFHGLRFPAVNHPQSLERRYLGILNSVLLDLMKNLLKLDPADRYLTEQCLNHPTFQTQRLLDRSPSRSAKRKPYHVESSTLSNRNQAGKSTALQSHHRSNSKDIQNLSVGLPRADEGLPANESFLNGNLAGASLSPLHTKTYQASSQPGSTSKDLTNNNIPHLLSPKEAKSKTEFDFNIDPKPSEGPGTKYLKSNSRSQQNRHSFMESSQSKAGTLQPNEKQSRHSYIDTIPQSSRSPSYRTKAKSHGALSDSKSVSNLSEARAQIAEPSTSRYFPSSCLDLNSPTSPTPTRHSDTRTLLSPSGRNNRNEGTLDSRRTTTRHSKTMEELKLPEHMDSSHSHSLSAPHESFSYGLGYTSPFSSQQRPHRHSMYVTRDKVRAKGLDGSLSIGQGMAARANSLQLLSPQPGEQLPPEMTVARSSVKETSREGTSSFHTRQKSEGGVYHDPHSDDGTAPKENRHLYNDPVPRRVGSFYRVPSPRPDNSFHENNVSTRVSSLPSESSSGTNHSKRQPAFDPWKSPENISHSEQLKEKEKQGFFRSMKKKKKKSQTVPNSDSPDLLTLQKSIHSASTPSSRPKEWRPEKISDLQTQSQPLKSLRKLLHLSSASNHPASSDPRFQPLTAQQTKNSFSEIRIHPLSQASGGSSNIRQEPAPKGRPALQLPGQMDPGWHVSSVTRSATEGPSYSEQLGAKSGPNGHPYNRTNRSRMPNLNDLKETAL
Chain of DYRK2 (human) (Q92630 whole entry, looked up): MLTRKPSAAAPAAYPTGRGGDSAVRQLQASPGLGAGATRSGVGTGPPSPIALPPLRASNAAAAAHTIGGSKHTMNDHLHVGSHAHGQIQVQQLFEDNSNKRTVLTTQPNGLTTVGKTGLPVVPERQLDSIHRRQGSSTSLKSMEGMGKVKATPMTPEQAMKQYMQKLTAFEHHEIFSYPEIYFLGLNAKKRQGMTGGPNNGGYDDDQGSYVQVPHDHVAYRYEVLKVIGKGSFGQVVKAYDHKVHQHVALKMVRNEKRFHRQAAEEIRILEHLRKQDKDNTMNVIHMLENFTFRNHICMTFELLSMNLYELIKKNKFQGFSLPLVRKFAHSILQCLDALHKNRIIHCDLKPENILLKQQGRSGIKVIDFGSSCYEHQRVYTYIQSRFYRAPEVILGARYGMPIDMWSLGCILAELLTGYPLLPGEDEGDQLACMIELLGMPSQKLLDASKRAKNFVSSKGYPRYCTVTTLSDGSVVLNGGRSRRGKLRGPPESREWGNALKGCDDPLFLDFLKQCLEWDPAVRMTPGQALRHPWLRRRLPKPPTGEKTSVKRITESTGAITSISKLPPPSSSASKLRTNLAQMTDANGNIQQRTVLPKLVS
Chain of EPHB1 (human) (P54762 whole entry, looked up): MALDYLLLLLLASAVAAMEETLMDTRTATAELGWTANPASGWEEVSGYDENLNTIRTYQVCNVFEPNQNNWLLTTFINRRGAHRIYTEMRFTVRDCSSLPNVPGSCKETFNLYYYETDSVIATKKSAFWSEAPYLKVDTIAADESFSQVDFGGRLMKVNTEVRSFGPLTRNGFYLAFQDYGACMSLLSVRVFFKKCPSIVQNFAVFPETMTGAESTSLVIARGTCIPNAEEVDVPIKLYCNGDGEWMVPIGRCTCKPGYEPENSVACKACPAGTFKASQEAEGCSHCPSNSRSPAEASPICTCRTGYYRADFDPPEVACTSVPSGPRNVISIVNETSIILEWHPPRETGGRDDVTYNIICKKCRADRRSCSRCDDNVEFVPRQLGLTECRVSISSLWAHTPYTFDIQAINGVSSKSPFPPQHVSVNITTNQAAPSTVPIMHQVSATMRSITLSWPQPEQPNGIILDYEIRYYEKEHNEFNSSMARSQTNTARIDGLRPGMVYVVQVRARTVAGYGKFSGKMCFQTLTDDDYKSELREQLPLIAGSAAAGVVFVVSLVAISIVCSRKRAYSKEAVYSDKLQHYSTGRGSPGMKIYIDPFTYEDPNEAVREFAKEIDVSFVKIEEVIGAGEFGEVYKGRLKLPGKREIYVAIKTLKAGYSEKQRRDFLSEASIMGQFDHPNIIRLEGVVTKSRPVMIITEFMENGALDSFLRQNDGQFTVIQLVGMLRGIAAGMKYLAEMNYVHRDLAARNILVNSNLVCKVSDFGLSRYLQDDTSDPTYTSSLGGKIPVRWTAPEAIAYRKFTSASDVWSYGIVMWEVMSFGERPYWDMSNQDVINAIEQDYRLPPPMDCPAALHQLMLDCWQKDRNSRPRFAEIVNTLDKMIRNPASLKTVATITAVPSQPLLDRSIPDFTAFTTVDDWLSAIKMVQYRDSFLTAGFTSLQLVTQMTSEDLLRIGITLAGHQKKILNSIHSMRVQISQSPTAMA
Chain of MUSK (human) (O15146 whole entry, looked up): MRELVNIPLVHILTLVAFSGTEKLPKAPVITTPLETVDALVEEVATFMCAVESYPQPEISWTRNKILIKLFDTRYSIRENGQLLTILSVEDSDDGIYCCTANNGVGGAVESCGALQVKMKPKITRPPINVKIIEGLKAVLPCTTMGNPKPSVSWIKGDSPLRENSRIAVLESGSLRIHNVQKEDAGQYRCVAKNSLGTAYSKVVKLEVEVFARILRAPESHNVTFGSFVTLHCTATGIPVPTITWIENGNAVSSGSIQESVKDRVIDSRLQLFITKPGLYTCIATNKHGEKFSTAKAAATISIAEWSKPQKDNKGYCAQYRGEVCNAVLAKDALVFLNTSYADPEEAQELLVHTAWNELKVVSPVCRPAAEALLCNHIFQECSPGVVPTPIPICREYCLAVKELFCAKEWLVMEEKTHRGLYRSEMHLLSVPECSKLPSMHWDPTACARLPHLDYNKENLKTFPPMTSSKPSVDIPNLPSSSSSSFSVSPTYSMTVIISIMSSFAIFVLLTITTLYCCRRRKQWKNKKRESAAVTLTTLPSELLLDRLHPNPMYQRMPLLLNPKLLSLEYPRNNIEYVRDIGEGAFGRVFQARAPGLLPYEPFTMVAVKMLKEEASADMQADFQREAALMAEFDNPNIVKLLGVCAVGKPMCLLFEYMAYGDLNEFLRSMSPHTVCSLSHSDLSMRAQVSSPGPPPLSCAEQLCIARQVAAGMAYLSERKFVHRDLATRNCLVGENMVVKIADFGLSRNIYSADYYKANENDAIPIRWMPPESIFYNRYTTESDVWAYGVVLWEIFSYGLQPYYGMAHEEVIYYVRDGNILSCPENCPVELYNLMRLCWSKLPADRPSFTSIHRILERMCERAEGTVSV
Chain of TNK2 (human) (Q07912 whole entry, looked up): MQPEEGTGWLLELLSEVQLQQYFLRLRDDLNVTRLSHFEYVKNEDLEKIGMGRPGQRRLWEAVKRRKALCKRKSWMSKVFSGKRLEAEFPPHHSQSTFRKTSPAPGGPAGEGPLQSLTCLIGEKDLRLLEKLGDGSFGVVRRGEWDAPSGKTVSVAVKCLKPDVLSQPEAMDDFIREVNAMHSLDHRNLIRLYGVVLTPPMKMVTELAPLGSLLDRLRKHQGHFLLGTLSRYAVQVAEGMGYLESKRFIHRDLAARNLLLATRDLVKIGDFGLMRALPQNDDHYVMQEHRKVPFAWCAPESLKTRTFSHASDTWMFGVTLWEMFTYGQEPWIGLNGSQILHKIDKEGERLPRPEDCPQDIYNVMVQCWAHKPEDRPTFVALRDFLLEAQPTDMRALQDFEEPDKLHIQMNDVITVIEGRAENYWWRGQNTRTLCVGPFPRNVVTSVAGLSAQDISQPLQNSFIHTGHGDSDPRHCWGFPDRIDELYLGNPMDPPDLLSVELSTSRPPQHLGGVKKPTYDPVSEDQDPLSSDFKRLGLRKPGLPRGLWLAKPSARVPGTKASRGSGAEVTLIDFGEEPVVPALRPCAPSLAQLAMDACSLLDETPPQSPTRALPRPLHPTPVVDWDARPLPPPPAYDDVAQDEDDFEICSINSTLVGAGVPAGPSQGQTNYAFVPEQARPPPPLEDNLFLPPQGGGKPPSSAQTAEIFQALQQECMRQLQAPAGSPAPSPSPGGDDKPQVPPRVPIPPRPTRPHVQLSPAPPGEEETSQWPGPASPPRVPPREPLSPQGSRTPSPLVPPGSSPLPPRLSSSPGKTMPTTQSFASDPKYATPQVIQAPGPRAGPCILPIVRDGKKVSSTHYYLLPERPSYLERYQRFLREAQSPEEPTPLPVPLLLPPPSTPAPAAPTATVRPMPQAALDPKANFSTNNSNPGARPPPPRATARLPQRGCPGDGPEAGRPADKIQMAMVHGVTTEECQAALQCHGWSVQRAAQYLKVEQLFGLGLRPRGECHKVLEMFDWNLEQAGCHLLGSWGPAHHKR
Chain of CSNK2A1 (human) (P68400 whole entry, looked up): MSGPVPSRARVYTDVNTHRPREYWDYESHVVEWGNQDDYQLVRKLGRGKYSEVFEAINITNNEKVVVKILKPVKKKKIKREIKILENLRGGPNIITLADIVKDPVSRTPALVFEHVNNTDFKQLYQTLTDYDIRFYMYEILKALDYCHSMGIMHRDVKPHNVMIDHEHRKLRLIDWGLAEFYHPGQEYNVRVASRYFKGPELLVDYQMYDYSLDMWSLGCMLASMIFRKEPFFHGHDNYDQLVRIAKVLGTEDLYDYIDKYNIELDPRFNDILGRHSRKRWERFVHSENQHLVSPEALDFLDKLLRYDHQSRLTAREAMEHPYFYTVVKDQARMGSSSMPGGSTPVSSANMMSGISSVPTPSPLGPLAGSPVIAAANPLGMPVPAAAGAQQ

COc1ccc(-c2ccc3c(N4CCOCC4)nc(N4C[C@@H](C)O[C@@H](C)C4)nc3n2)cc1CO
kinase still bound, per cent of control (OXSR1 (human)): 72%
kinase still bound, per cent of control (MAP2K1 (human)): 100%
kinase still bound, per cent of control (PLK4 (human)): 100%
kinase still bound, per cent of control (ALK (human)): 100%
kinase still bound, per cent of control (SNRK (human)): 48%
kinase still bound, per cent of control (NEK2 (human)): 100%
kinase still bound, per cent of control (STK32A (human)): 67%
kinase still bound, per cent of control (FER (human)): 100%
kinase still bound, per cent of control (CSNK2A1 (human)): 96%
kinase still bound, per cent of control (BMX (human)): 86%
kinase still bound, per cent of control (TNIK (human)): 100%
kinase still bound, per cent of control (ERBB2 (human)): 94%
kinase still bound, per cent of control (MYO3A (human)): 97%
kinase still bound, per cent of control (TNK2 (human)): 100%
per cent of control (CDKL1 (human)): 100%
kinase still bound, per cent of control (LRRK2 (human)): 100%
kinase still bound, per cent of control (RET (human)): 91%
kinase still bound, per cent of control (EPHB1 (human)): 100%
kinase still bound, per cent of control (CAMK4 (human)): 100%
kinase still bound, per cent of control (AKT3 (human)): 97%
kinase still bound, per cent of control (TXK (human)): 100%
kinase still bound, per cent of control (IRAK1 (human)): 100%
kinase still bound, per cent of control (EIF2AK1 (human)): 88%
kinase still bound, per cent of control (RPS6KA2 KD1 (human)): 100%
kinase still bound, per cent of control (STK38 (human)): 55%
kinase still bound, per cent of control (CSK (human)): 77%
kinase still bound, per cent of control (PAK1 (human)): 84%
kinase still bound, per cent of control (DYRK2 (human)): 63%
per cent of control (CDKL5 (human)): 77%
kinase still bound, per cent of control (CRK2 (P.falciparum)): 90%
kinase still bound, per cent of control (STK32C (human)): 87%
kinase still bound, per cent of control (RPS6KA4 KD2 (human)): 95%
kinase still bound, per cent of control (CLK3 (human)): 90%
kinase still bound, per cent of control (MAP2K7 (human)): 100%
kinase still bound, per cent of control [1]: 2.3%
kinase still bound, per cent of control (PRKG1 (human)): 91%
kinase still bound, per cent of control [2]: 86%
kinase still bound, per cent of control (INSRR (human)): 100%
kinase still bound, per cent of control (INSR (human)): 97%
kinase still bound, per cent of control (MUSK (human)): 100%
kinase still bound, per cent of control (MERTK (human)): 100%

Reference: the kinase profiling compilation of Christmann-Franck et al. (2016)
